From patent publication US8637664B2, “Alkyl 4- [4- (5-oxo-2,3,5, 11a-tetrahydo-5H-pyrrolo [2, 1-c] [1,4] benzodiazepine-8-yloxy)-butyrylamino]-1H-pyrrole-2-carboxylate derivatives and related compounds for the treatment of a proliferative disease” (Spirogen SARL, priority 2005, dated 2014)

Columns and labels:
[1] = test system: K562 human chronic myeloid leukaemia cells; experiment: In vitro cytotoxicity, MTT assay; type: cell-based; details: K562, 1 hour drug exposure, MTT after 4 days
Description: K562 human chronic myeloid leukaemia cells were maintained in RPM1 1640 medium supplemented with 10% fetal calf serum and 2 mM glutamine at 37° C. in a humidified atmosphere containing 5% CO2 and were incubated with a specified dose of drug for 1 hour at 37° C. in the dark. The incubation was terminated by centrifugation (5 min, 300 g) and the cells were washed once with drug-free medium. Following the appropriate drug treatment, the cells were transferred to 96-well microtiter plates (10^4 cells per well, 8 wells per sample). Plates were then kept in the dark at 37° C. in a humidified atmosphere containing 5% CO2. The assay is based on the ability of viable cells to reduce a yellow soluble tetrazolium salt, 3-(4,5-dimethylthiazol-2-yl)-2,5-diphenyl-2H-tetrazolium bromide (MTT, Aldrich-Sigma), to an insoluble purple formazan precipitate. Following incubation of the plates for 4 days (to allow control cells to increase in number by approximately 10 fold), 20 μL of MTT solution (5 mg/mL in phosphate-buffered saline) was added to each well and the plates further incubated for 5 hours. The plates were then centrifuged for 5 minutes at 300 g and the bulk of the medium pipetted from the cell pellet leaving 10-20 μL per well. DMSO (200 μL) was added to each well and the samples agitated to ensure complete mixing. The optical density was then read at a wavelength of 550 nm on a Titertek Multiscan ELISA plate reader, and a dose-response curve was constructed.

[2] = test system: 170 bp sequence of the human Topo-IIa promoter; experiment: DNase I footprinting on Topo-IIa promoter (ICB1, ICB2 sites); type: binding
Outline: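 DNase I footprinting on a 170 bp human Topo-IIa promoter fragment, compound lanes at 0, 1.6, 8, 40, 200, 1000, 5000 and 25000 nM. Values are the concentrations (μM) at which binding at the ICB1 and ICB2 sites is seen.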

[3] = test system: NF-Y binding at ICB1 of Topoisomerase IIα promoter; experiment: NF-Y gel shift assay (EMSA) at ICB1
[4] = test system: NF-Y binding at ICB2 of Topoisomerase IIα promoter; experiment: NF-Y gel shift assay (EMSA) at ICB2

Structure (SMILES) | IC50 [1] [nM] | Concentration at which DNA binding is observed, ICB1 ([2]; ICB1 site) [µM] | Concentration at which DNA binding is observed, ICB2 ([2]; ICB2 site) [µM] | Lowest concentration at which NF-Y binding inhibition was observed [3] [µM] | Lowest concentration at which NF-Y binding inhibition was observed [4] [µM]
COC(=O)c1cc(NC(=O)c2cc(NC(=O)CCCOc3cc4c(cc3OC)C(=O)N3CCC[C@H]3C=N4)cn2C)cn1C [Compound 23, (11aS) Methyl 4-({4-[4-(7-Methoxy-6-oxo-2,3,5,11a-tetrahydro-5H-pyrrolo[2,1-c][1,4]benzodiazepine-8-yloxy)-butyrylamino]-1-methyl-1H-pyrrole-2-carbonyl}-amino)-1-methyl-1H-pyrrole-2-carboxylate] | 3.6 | 1 | 1 | 5 | 5
COC(=O)c1cc(NC(=O)c2cc(NC(=O)c3cc(NC(=O)CCOc4cc5c(cc4OC)C(=O)N4CCC[C@H]4C=N5)cn3C)cn2C)cn1C [Compound C11, (11aS) Methyl 4-{[4-({4-[4-(7-Methoxy-5-oxo-2,3,5,11a-tetrahydro-5H-pyrrolo[2,1-c][1,4]benzodiazepine-8-yloxy)-propionylamino]-1-methyl-1H-pyrrole-2-carbonyl]-amino)-1-methyl-1H-pyrrole-2-carbonyl]-amino}-1-methyl-1H-pyrrole-2-carboxylate] | 346 |  |  |  | 
